In PMC8533149 (Biomolecules, 2021):

Tested on: HIV-1 LTR-III G-quadruplex (FAM/TAMRA-labeled LTR-III)
Assay: FRET melting assay, LTR-III G4
Format: binding
Details: Table S1 primary screening, ligand:ODN 50:1, singlicate
Summary of the method: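 Melting is followed by FAM fluorescence (ex 495/em 520 nm) while heating at 1 °C/min from 30 to 95 °C. Labelled ODN at 0.5 μM, pre-annealed in 10 mM Li cacodylate, 100 mM KCl, pH 7.4, mixed with ligand at 50:1 (25 μM), or 20:1 and 2:1 for titration. ΔTm is relative to the 0.25% DMSO buffer control.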

| Structure (SMILES) | LTR-III ΔTm [°C] |
| --- | --- |
| CC(C)OC(=O)c1noc(C(=O)N2CCCC2)c1-c1ccccc1 [SA 307A] | -0.3 |
| COc1ccc(-c2c(C(=O)OC(C)C)noc2C(=O)N2CCCC2)cc1 [SA 309] | -0.5 |
| CNC(=O)c1onc(C(=O)OC(C)C)c1-c1ccccc1 [SA 325A] | -0.5 |
| CC(C)OC(=O)c1noc(C(=O)NC2CCCCC2)c1-c1ccccc1 [SA 325E] | -0.6 |
| CNC(=O)c1onc(C(=O)OC(C)C)c1-c1cccs1 [SA 330A] | -0.5 |
| CC(C)OC(=O)c1noc(C(=O)NCc2ccccc2)c1-c1cccs1 [SA 330E] | -0.7 |
| CNC(=O)c1onc(C(=O)OC(C)C)c1-c1ccccc1F [SA 331A] | -0.7 |
| CC(C)OC(=O)c1noc(C(=O)NC2CCCCC2)c1-c1ccccc1F [SA 331D] | -0.7 |
| CC(C)OC(=O)c1noc(C(=O)NCc2ccccc2)c1-c1ccccc1F [SA 331E] | -0.9 |
| CNC(=O)c1onc(C(=O)OC(C)C)c1-c1ccc(N(C)C)cc1 [SA 332.1] | -0.4 |
| CC(C)OC(=O)c1noc(C(=O)N2CCCC2)c1-c1ccc(N(C)C)cc1 [SA 332.2] | -0.4 |
| CC(C)OC(=O)c1noc(C(=O)NCc2ccccc2)c1-c1ccc(N(C)C)cc1 [SA 332E1] | -0.6 |
| C[C@H](CS)C(=O)N1CCC[C@H]1C(=O)O [SA 333] | -0.4 |
| COc1ccc(-c2c(C(=O)OC(C)C)noc2C(=O)N2CCOCC2)cc1 [SA 341A] | -0.7 |
| COc1ccc(-c2c(C(=O)OC(C)C)noc2C(=O)NC2CCCCC2)cc1 [SA 341B] | -0.2 |
| COc1ccc(-c2c(C(=O)OC(C)C)noc2C(=O)NCc2ccccc2)cc1 [SA 341C] | -0.2 |
| CC(C)OC(=O)c1noc(C(=O)N2CCOCC2)c1-c1ccc(C(C)C)cc1 [SA 342A] | -0.3 |
| CC(C)OC(=O)c1noc(C(=O)NCc2ccccc2)c1-c1ccc(C(C)C)cc1 [SA 342B] | -0.5 |
| CC(C)OC(=O)c1noc(C(=O)N2CCOCC2)c1-c1cccc2ccccc12 [SA 343A] | -0.4 |
| CC(C)OC(=O)c1noc(C(=O)NCc2ccccc2)c1-c1cccc2ccccc12 [SA 343B] | -0.9 |
| CC(C)OC(=O)c1noc(C(=O)N2CCOCC2)c1-c1cccc(C(F)(F)F)c1 [SA 344A] | -0.5 |
| CC(C)OC(=O)c1noc(C(=O)NCc2ccccc2)c1-c1cccc(C(F)(F)F)c1 [SA 344B] | -0.7 |
| CC(C)OC(=O)c1noc(C(=O)NCc2ccccc2)c1-c1ccc(O)cc1 [SA 345B] | -0.8 |

| Structure (SMILES) | LTR-III ΔTm [°C] |
| --- | --- |
| COc1ccc(-c2c(C(=O)OC(C)C)noc2C(=O)NCc2ccccn2)cc1 [SA 350C] | -0.6 |
| COc1ccc(-c2c(C(=O)OC(C)C)noc2C(=O)N2CCCCC2)cc1 [SA 375] | -0.4 |
| COC(=O)c1ccc(C=C2N=C(C)N(C)C2=O)cc1 [SA 400] | 0 |
| COc1ccc2cc(OC)c(C=C3N=C(C)N(C)C3=O)cc2c1 [SA 410] | -0.2 |
| CC1=NC(=Cc2ccc([N+](=O)[O-])cc2)C(=O)N1C [SA 412] | 0 |
| CC1=NC(=Cc2ccc(C#N)cc2)C(=O)N1C [SA 433] | -0.4 |
| CC1=NC(=Cc2ccnc3ccccc23)C(=O)N1C [SA 471] | -0.1 |
| COc1ccc(C=C2N=C(C=C(SC)c3ccccc3)N(C)C2=O)cc1 [SA 474.1] | 0 |
| CSC1=NC(=Cc2ccc(O[Si](c3ccccc3)(c3ccccc3)C(C)(C)C)cc2)C(=O)N1C [SA 497] | -0.4 |
| CNC(=O)c1onc(C(=O)OC)c1-c1ccc(OC)cc1 [SA 561A] | -0.3 |
| COC(=O)c1noc(C(=O)N2CCCC2)c1-c1ccc(OC)cc1 [SA 561B] | -0.6 |
| COC(=O)c1noc(C(=O)N2CCCCC2)c1-c1ccc(OC)cc1 [SA 561C] | -1 |
| COC(=O)c1noc(C(=O)NCc2ccccc2)c1-c1ccc(OC)cc1 [SA 561D] | -0.4 |
| COC(=O)c1noc(C(=O)N2CCOCC2)c1-c1ccc(OC)cc1 [SA 561E] | -0.7 |
| CCOC(=O)c1noc(=O)c(O)c1-c1ccc(OC)cc1 [SA 562B] | -1 |
| CSC1=NC(=Cc2ccc(O)cc2)C(=O)N1C [SA 581] | 1 |
| CSC(=CC1=NC(=Cc2ccc(O)cc2)C(=O)N1C)c1ccccc1 [SA 599.21] | -0.3 |
| COc1cc(/C=C/c2ccc(O)cc2OC)oc(=O)c1 [SAI 32] | 0.4 |
| O=C1NC(=S)SC1=Cc1cc(Br)c(O)c(Br)c1 [SAI 112] | 0.3 |
| COc1cc(C=C2SC(=S)NC2=O)c(OC)cc1O [SAI 115] | -0.3 |
| O=C1NC(=S)SC1=Cc1ccc(O)c(Br)c1 [SAI 117] | -0.2 |
| O=C1NC(=S)SC1=Cc1cc(F)c(O)c(F)c1 [SAI 118] | 0 |
| O=C1NC(=S)SC1=Cc1ccc(O)c(C(=O)O)c1 [SAI 120] | 0.6 |

| Structure (SMILES) | LTR-III ΔTm [°C] |
| --- | --- |
| O=C1NC(=S)SC1=Cc1ccc(O)cc1Br [SAI 122] | 0.1 |
| O=C1NC(=S)SC1=Cc1ccc(O)c(Cl)c1 [SAI 125] | 0.6 |
| O=C1NC(=S)SC1=Cc1cc(Cl)c(O)c(Cl)c1 [SAI 127] | -0.2 |
| COc1cc(O)ccc1C=C1N=C(c2cccs2)N(C)C1=O [SH 016.3B] | 0.9 |
| CC(=O)NC(=Cc1ccccc1)C(=O)NO [SV 6] | 0 |
| CC(=O)NC(=Cc1ccc(O)cc1)C(=O)NO [SV 7] | 0 |
| CCC1=NC(=Cc2c[nH]c3ccccc23)C(=O)O1 [SV 11] | 0 |
| CCC(=O)NC(=Cc1c[nH]c2ccccc12)C(=O)NC [SV 13] | -0.1 |
| CCC1=NC(=Cc2c[nH]c3ccccc23)C(=O)N1C [SV 14] | 0 |
| COc1ccc(C=C2N=C(C=C(OC(=O)c3ccc(C)cc3)c3ccc(C)cc3)N(C)C2=O)cc1 [SV 18] | 0.4 |
| COc1ccc(C=C2N=C(C=C(O)c3ccc(C)cc3)N(C)C2=O)cc1 [SV 29] | -0.2 |
| COc1ccc(C=C2N=C(C=C(O)c3ccc(F)cc3)N(C)C2=O)cc1 [SV 30] | -0.4 |
| CC1=NC(=Cc2ccccc2F)C(=O)N1C [SV 50.9] | -0.2 |
| CC1=NC(=Cc2ccc(F)cc2)C(=O)N1C [SV 50.10] | -0.2 |
| COc1cccc(C=C2N=C(C)N(C)C2=O)c1 [SV 50.11] | -0.2 |
| CC1=NC(=Cc2ccc(O)c(C(=O)O)c2)C(=O)N1C [SV 51.1] | -0.4 |
| CC1=NC(=Cc2cc(Br)cc(Br)c2)C(=O)N1C [SV 51.5] | -0.3 |
| CC1=NC(=Cc2ccc(Br)cc2)C(=O)N1C [SV 51.10] | -0.2 |
| CC1=NC(=Cc2cccc3ccccc23)C(=O)N1C [SV 51.12] | 0.4 |
| CC1=NC(=Cc2ccc([N+](=O)[O-])c(O)c2)C(=O)N1C [SV 52.7] | -0.2 |
| CC1=NC(=Cc2ccc(Br)c([N+](=O)[O-])c2)C(=O)N1C [SV 52.8] | 0.6 |
| COc1ccc(C=C2N=C(SC)N(C)C2=O)cc1 [VZ 1] | 0.4 |
| CC(C)(C)[Si](Oc1ccc(C=C2NC(=S)NC2=O)cc1)(c1ccccc1)c1ccccc1 [VZ 2] | -0.2 |
